Earlier results in PMC10010643 (Cancer Chemotherapy and Pharmacology, 2023).

Experiments:
galectin-3 [1] = conditions: cited from earlier work
galectin-3 [2] = tested on: galectin-3; parameters: method as in PMID 33214209; conditions: inhaled; cited from earlier work
[3] = parameters: method as in PMID 36154172; conditions: cited from earlier work

OC[C@H]1O[C@@H](S[C@@H]2O[C@H](CO)[C@H](O)[C@H](n3cc(-c4cccc(F)c4)nn3)[C@H]2O)[C@H](O)[C@@H](n2cc(-c3cccc(F)c3)nn2)[C@H]1O [GB0139]
Binding affinity for galectin-3 (galectin-3 [1]): high binding affinity
Galectin-3 expression (galectin-3 [2]): suppressed galectin-3 expression
Plasma biomarkers associated with IPF disease progression (galectin-3 [2]): decreased plasma biomarkers associated with IPF disease progression
Elimination if administered systemically [3]: prompt elimination
Intestinal absorption [3]: poor intestinal absorption
